A word on the pIC50: it is −log10 of the IC50, conventionally taken in molar units.

Among the data in patent US20240360134A1, “PYRAZOLOPYRIMIDINES AND THEIR USES AS PDGFR INHIBITORS” (priority 2021, published 2024) are IC50 values, retold here.

The target of assay [1] is Tb-labeled inactive PDGFRβ (Homo sapiens (Human), UniProt P09619). Nature of the assay: biochemical. The assay is classed as binding. The following applies: read-out: PDGFR Lantha IC50.
Assay [2] concerns the target His6-TEV-PDGFRβ (557-1016) (Homo sapiens (Human), UniProt P09619). Put plainly: PDGFRβ HTRF Assay. The assay is classed as biochemical. As to conditions: 800 μM ATP, 0.5 μM TK-substrate biotin peptide, 30 min pre-incubation, 3 hours reaction; read-out: PDGFR HTRF IC50.
For another assay, the target named is VEGFR2, unphosphorylated (Homo sapiens (Human), UniProt P35968). Nature of the assay: VEGFR ADP GLO assay. The assay is classed as biochemical. As to conditions: 5 nM VEGFR2, 1.2 mM ATP, 1 mg/mL Srctide, 180 min. The gist of the method: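 Luminescent ADP detection after a 180-min room-temperature reaction of srctide plus ATP (2 mg/mL and 2.4 mM in 2× mix) in pH 7.5 HEPES buffer with DTT, Pluronic and ovalbumin. Compounds, 11 points from 10 µM, first pre-incubated 30 min with enzyme (2× mix 10 nM). IC50s fitted after scaling between DMSO and 1 µM TAK-593 controls.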
Sequence of VEGFR2, unphosphorylated (P35968 whole entry, looked up): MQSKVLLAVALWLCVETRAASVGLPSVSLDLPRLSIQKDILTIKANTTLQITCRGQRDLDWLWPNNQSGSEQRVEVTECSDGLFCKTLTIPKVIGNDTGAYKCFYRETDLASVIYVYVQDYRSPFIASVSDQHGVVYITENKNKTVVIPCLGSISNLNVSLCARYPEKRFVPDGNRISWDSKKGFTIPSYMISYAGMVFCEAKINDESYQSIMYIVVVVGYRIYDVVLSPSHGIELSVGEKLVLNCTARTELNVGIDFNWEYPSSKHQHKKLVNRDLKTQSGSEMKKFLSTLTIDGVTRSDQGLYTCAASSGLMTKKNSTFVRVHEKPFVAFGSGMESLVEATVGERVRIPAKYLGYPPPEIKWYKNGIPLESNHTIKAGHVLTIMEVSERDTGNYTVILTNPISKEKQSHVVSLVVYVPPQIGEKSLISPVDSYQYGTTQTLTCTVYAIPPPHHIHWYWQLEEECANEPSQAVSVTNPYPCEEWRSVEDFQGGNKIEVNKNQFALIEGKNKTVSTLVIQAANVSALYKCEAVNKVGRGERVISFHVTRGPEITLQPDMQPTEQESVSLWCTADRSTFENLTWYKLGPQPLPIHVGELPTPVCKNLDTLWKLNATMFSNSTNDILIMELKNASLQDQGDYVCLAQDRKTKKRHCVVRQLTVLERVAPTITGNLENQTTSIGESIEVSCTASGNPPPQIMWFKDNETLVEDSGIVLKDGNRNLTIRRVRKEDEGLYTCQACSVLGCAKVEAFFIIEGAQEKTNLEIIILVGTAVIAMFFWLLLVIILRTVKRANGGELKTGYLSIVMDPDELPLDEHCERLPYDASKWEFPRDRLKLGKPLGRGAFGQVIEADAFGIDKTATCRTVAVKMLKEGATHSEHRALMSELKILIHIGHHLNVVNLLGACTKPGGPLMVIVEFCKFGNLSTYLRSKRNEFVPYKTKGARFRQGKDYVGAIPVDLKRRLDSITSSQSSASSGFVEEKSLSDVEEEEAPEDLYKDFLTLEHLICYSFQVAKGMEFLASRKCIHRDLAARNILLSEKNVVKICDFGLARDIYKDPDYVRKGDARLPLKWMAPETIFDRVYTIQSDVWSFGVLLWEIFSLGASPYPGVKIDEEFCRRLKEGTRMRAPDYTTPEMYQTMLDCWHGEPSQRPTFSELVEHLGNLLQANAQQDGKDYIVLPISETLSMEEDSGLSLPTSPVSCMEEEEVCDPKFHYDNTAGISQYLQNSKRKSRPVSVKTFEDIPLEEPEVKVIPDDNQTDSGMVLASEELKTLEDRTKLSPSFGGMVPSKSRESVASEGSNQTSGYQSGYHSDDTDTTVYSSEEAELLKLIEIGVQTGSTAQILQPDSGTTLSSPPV

The next assay concerns the target PDGFRβ (Rattus norvegicus (Rat), UniProt Q05030). Nature of the assay: PDGFRβ Cellular Assay (PDGFRb P-Y751 HTRF, PDGF-BB stimulated A10 cells). As to conditions: A10 cells, 3 hours compound, 15 ng/mL PDGFbb for 10 minutes; read-out: PDGFR Cellular IC50. The assay is classed as cell-based. The gist of the method:
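Rat A10 cells plated overnight were treated with compound for 3 h, stimulated with rat PDGF-BB (working stock 100 ng/mL in 10% FBS medium) for 10 min, then lysed.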

pIC50: −log10 of the molar value. Where only a bound is given, the exact number is not on record here.

Sequence of Tb-labeled inactive PDGFRβ (P09619 whole entry, looked up): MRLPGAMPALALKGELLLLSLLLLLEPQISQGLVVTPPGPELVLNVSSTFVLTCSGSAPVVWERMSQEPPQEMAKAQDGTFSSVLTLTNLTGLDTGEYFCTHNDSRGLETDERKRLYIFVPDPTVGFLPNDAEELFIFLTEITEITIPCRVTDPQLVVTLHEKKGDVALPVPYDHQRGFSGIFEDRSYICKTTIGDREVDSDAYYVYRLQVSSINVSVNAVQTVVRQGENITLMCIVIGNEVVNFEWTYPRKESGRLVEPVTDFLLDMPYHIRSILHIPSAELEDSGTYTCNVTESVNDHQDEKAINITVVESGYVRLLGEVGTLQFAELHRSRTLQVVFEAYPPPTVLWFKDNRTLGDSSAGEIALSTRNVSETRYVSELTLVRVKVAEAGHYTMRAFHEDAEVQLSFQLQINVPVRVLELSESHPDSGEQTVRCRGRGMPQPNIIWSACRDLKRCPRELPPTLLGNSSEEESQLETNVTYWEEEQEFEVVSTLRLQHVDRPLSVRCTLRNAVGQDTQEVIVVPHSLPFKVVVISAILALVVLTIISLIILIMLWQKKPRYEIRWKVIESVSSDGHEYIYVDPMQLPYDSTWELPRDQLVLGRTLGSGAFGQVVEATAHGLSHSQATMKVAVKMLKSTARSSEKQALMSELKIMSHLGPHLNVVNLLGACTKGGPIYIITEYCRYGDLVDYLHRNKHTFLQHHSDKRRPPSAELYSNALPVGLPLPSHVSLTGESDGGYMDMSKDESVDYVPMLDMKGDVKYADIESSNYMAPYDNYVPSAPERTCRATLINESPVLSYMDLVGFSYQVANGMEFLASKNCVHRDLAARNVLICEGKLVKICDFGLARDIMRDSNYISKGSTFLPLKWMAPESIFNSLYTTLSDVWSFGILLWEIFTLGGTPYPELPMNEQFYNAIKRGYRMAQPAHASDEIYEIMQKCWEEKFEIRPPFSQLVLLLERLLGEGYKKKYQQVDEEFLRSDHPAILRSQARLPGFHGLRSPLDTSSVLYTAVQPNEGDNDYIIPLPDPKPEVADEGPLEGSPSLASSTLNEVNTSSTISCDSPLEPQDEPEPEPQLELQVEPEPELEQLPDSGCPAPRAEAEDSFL
Sequence of His6-TEV-PDGFRβ (557-1016) (P09619 whole entry, looked up): as above
Sequence of PDGFRβ (Q05030 whole entry, looked up): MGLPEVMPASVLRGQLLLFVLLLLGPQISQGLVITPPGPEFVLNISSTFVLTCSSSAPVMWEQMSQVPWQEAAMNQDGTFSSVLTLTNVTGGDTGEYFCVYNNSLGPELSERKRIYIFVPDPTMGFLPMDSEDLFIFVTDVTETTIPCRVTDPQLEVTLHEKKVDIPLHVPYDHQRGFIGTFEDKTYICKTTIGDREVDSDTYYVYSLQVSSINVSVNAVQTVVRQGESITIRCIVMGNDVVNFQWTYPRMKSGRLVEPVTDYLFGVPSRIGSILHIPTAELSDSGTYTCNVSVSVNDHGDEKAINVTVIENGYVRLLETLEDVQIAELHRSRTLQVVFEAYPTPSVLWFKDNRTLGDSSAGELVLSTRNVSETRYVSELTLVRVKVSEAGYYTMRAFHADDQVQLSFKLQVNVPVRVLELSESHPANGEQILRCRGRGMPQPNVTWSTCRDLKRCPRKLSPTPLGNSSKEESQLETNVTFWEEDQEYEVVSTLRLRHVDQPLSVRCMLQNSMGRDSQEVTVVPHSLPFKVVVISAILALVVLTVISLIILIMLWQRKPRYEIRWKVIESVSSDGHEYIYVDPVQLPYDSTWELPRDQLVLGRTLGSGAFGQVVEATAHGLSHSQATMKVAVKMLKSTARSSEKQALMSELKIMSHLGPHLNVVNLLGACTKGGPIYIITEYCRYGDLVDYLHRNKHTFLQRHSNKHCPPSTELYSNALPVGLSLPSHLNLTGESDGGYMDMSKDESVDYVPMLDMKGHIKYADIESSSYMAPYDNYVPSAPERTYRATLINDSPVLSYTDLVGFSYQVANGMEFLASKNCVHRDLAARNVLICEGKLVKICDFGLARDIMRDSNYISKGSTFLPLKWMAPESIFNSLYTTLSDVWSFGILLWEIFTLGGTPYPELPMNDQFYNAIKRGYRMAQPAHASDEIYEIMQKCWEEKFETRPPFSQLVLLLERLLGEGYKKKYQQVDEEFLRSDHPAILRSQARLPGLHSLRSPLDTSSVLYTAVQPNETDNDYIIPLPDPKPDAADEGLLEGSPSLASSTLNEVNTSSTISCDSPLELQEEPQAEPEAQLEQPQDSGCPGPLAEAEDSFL

Turning to `Cc1ncc(C(=O)NCCC2CCCCC2)cc1Nc1nn(C)c2nc(Nc3ccnc(N4CCN(CCO)CC4)c3)ncc12` [Example 110, N-(2-cyclohexylethyl)-5-((6-((2-(4-(2-hydroxyethyl)piperazin-1-yl)pyridin-4-yl)amino)-1-methyl-1H-pyrazolo[3,4-d]pyrimidin-3-yl)amino)-6-methylnicotinamide], the negative-log IC50 (pIC50) in assay [1] is 8.41; in assay [2] it was 9.11; against VEGFR2, unphosphorylated, 6.84; at PDGFRβ, 6.97.
Taken in the same sequence, the figures for `Cc1ncc(C(=O)NCCN2CCCC2(C)C)cc1Nc1nn(C)c2nc(Nc3ccnc(N4CCC(CCO)CC4)c3)ncc12` [Example 111, N-(2-(2,2-dimethylpyrrolidin-1-yl)ethyl)-5-((6-((2-(4-(2-hydroxyethyl)piperidin-1-yl)pyridin-4-yl)amino)-1-methyl-1H-pyrazolo[3,4-d]pyrimidin-3-yl)amino)-6-methylnicotinamide] were 8.29, 9.29, less than 5.12 and 6.97.
Consider `Cc1ncc(C(=O)NCCN2C[C@H](C)O[C@@H](C)C2)cc1Nc1nn(C)c2nc(Nc3ccnc(N4CCC(CCO)CC4)c3)ncc12` [Example 112, N-(2-((2S,6S)-2,6-dimethylmorpholino)ethyl)-5-((6-((2-(4-(2-hydroxyethyl)piperidin-1-yl)pyridin-4-yl)amino)-1-methyl-1H-pyrazolo[3,4-d]pyrimidin-3-yl)amino)-6-methylnicotinamide], for which the negative logarithm of the IC50 (pIC50) in assay [1] is 8.35; in assay [2], 9.24; against VEGFR2, unphosphorylated it was less than 5.12; at PDGFRβ, 7.07.
The like results for `CC[C@@H]1CN(CCNC(=O)c2cnc(C)c(Nc3nn(C)c4nc(Nc5ccnc(N6CCC(CCO)CC6)c5)ncc34)c2)CCO1` [Example 113, (R)—N-(2-(2-ethylmorpholino)ethyl)-5-((6-((2-(4-(2-hydroxyethyl)piperidin-1-yl)pyridin-4-yl)amino)-1-methyl-1H-pyrazolo[3,4-d]pyrimidin-3-yl)amino)-6-methylnicotinamide] were, in that order, 8.17, 9.03, less than 5.12 and 6.94.
For the compound `Cc1ncc(C(=O)NCCN2C[C@H](C)O[C@@H](C)C2)cc1Nc1nn(C)c2nc(Nc3cncnc3)ncc12` [Example 114, N-(2-((2S,6S)-2,6-dimethylmorpholino)ethyl)-6-methyl-5-((1-methyl-6-(pyrimidin-5-ylamino)-1H-pyrazolo[3,4-d]pyrimidin-3-yl)amino)nicotinamide], the pIC50 in assay [1] is 8.04; in assay [2] it was 9.06; at VEGFR2, unphosphorylated, less than 5.12; on PDGFRβ, 7.14.
Taken in the same sequence, the figures for `Cc1ncc(C(=O)NCCN2C[C@H](C)O[C@@H](C)C2)cc1Nc1nn(C)c2nc(Nc3ccncc3)ncc12` [Example 115, N-(2-((2S,6S)-2,6-dimethylmorpholino)ethyl)-6-methyl-5-((1-methyl-6-(pyridin-4-ylamino)-1H-pyrazolo[3,4-d]pyrimidin-3-yl)amino)nicotinamide] were 8.41, 9.32, less than 5.12 and 7.69.
Turning to `Cc1ncc(NC(=O)C2(C(=O)N3CCN(C)CC3)CC2)cc1Nc1nn(C)c2nc(Nc3cnn(C)c3)ncc12` [Example 116, N-(6-methyl-5-((1-methyl-6-((1-methyl-1H-pyrazol-4-yl)amino)-1H-pyrazolo[3,4-d]pyrimidin-3-yl)amino)pyridin-3-yl)-1-(4-methylpiperazine-1-carbonyl)cyclopropanecarboxamide], the negative logarithm of the IC50 (pIC50) in assay [1] was 7.23; in assay [2] it was 8.58; on VEGFR2, unphosphorylated, less than 5.12; at PDGFRβ it was 6.14.
The like results for `Cc1ncc(NC(=O)C2(C(=O)N3CCNCC3)CC2)cc1Nc1nn(C)c2nc(Nc3cnn(C)c3)ncc12` [Example 117, N-(6-methyl-5-((1-methyl-6-((1-methyl-1H-pyrazol-4-yl)amino)-1H-pyrazolo[3,4-d]pyrimidin-3-yl)amino)pyridin-3-yl)-1-(piperazine-1-carbonyl) cyclopropanecarboxamide] were, in that order, 6.83, 8.37, less than 5.12 and less than 5.70.
The like results for `Cc1ccc(C(=O)NCCN2CCC(F)(F)CC2)cc1Nc1nn(C)c2nc(Nc3cnn(C)c3)ncc12` [Example 118, N-(2-(4,4-difluoropiperidin-1-yl)ethyl)-4-methyl-3-((1-methyl-6-((1-methyl-1H-pyrazol-4-yl)amino)-1H-pyrazolo[3,4-d]pyrimidin-3-yl)amino)benzamide] were, in that order, 8.74, 9.54, 7.12 and 8.27.
The like results for `C[C@H]1CCCN1CCNC(=O)c1ccc(F)c(Nc2nn(C)c3nc(Nc4cnn(C)c4)ncc23)c1` [Example 119, (S)-4-fluoro-3-((1-methyl-6-((1-methyl-1H-pyrazol-4-yl)amino)-1H-pyrazolo[3,4-d]pyrimidin-3-yl)amino)-N-(2-(2-methylpyrrolidin-1-yl)ethyl)benzamide] were, in that order, 8.85, 9.89, 5.18 and 8.24.
Take `Cn1cc(Nc2ncc3c(Nc4cc(C(=O)NCCN5CC(C)(C)C5)ccc4F)nn(C)c3n2)cn1` [Example 120, N-(2-(3,3-dimethylazetidin-1-yl)ethyl)-4-fluoro-3-((1-methyl-6-((1-methyl-1H-pyrazol-4-yl)amino)-1H-pyrazolo[3,4-d]pyrimidin-3-yl)amino)benzamide]: the negative-log IC50 (pIC50) in assay [1] was 8.48; in assay [2] it was 9.49; on VEGFR2, unphosphorylated, less than 5.12; at PDGFRβ, 8.00.
The like results for `Cn1cc(Nc2ncc3c(Nc4cc(C(=O)NCCN5CCCC5(C)C)ccc4F)nn(C)c3n2)cn1` [Example 121, N-(2-(2,2-dimethylpyrrolidin-1-yl)ethyl)-4-fluoro-3-((1-methyl-6-((1-methyl-1H-pyrazol-4-yl)amino)-1H-pyrazolo[3,4-d]pyrimidin-3-yl)amino)benzamide] were, in that order, 8.89, 9.70, less than 5.12 and 8.44.
The like results for `Cn1cc(Nc2ncc3c(Nc4cc(C(=O)NCCN5CCC6(CC6)C5)ccc4F)nn(C)c3n2)cn1` [Example 122, N-(2-(5-azaspiro[2.4]heptan-5-yl)ethyl)-4-fluoro-3-((1-methyl-6-((1-methyl-1H-pyrazol-4-yl)amino)-1H-pyrazolo[3,4-d]pyrimidin-3-yl)amino)benzamide] were, in that order, 8.92, 9.82, less than 5.12 and 8.34.
The like results for `COCCn1cc(Nc2ncc3c(Nc4cc(NC(=O)CN5CCC6(CC6)C5)cnc4C)nn(C)c3n2)cn1` [Example 124, N-(5-((6-((1-(2-methoxyethyl)-1H-pyrazol-4-yl)amino)-1-methyl-1H-pyrazolo[3,4-d]pyrimidin-3-yl)amino)-6-methylpyridin-3-yl)-2-(5-azaspiro[2.4]heptan-5-yl)acetamide] were, in that order, 8.80, 9.46, 5.31 and 8.37.
